What all share (assay): growth of human tumour cells (NCI), 48 h
Experiment [1] concerns DU-145 prostate.
In experiment [2] the test system is UACC-257 melanoma.
Experiment [3] deals with NCI-H23 lung.
For experiment [4], the system named is UACC-62 melanoma.
Experiment [5] has as its system SN12C renal.
Experiment [6] relates to SK-MEL-5 melanoma.
For experiment [7], the system named is COLO 205 colon.
For experiment [8], the system named is HT29 colon.
The subject of experiment [9] is NCI/ADR-RES ovarian.
Experiment [10] concerns SF-539 CNS.
For experiment [11], the system named is SF-268 CNS.
Experiment [12] has as its system ACHN renal.
The test system of experiment [13] is U251 CNS.
Experiment [14] relates to MALME-3M melanoma.
In experiment [15] the test system is NCI-H226 lung.
Experiment [16] has as its system UO-31 renal.
Experiment [17] has as its system SK-MEL-28 melanoma.
For experiment [18], the system named is SF-295 CNS.
For experiment [19], the system named is EKVX NSCLC.
Experiment [20] deals with MDA-N.

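Where inhibition never reached the appropriate level, the endpoint shown equals the highest concentration tested. Otherwise, values were interpolated linearly from a five-concentration, 48-hour dose response in 96-well plates. TGI: concentration producing complete growth inhibition.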 Where only a bound is given, the exact number is not on record here.

Regarding `CCOC(=O)c1nc2ccccc2nc1Nc1ccc(OC)cc1`, the TGI in experiment [1] is above 100 µM; in [2], above 100 µM; in [3], above 100 µM; in [4], 66.6 µM; in [5], 61.5 µM; in experiment [6] it was above 100 µM. Moreover, the TGI was above 100 µM in [7]; above 100 µM in experiment [8]; above 100 µM in experiment [9]; 52.1 µM in experiment [10]; above 100 µM in experiment [11]; above 100 µM in experiment [12]. In addition, the TGI in [13] was above 100 µM; in experiment [14], above 100 µM; in [15] it was above 100 µM; in [16], above 100 µM; in experiment [17] it was above 100 µM; in [18], 54.4 µM. This molecule came in with a TGI in experiment [19] above 100 µM.
`C[C@@H]1CCC2C(C)(C)C(/C=C\C=O)C3(C)OC213` (some centres not stated): the TGI is above 100 µM in experiment [1]; above 100 µM in experiment [2]; above 100 µM in experiment [3]; above 100 µM in experiment [4]; 53.2 µM in experiment [6]; above 100 µM in [20]. Further, the TGI in [7] is 55.4 µM; in [8] it was 62 µM; in experiment [9], above 100 µM; in [11], above 100 µM; in [12], above 100 µM; in experiment [13] it was above 100 µM. The TGI in experiment [14] was 72.1 µM; in experiment [16], above 100 µM; in experiment [17], above 100 µM; in [18], above 100 µM; in [19] it was above 100 µM.
With `Nc1ncnc2c1ncn2-c1ccc([N+](=O)[O-])cn1`, the TGI in [1], in experiment [2], in [3], in experiment [4], in experiment [5] and in experiment [6] was above 100 µM in each case. Also, the TGI in experiment [20], in [7], in experiment [8], in experiment [9], in [10] and in experiment [11] was above 100 µM in each case. The TGI in experiment [12], in [13], in experiment [15], in experiment [16], in experiment [17] and in [18] was above 100 µM in each case.
For `CN(C)/C=N\c1nncc2[nH]cnc12`, the TGI in [2], in [3], in experiment [4], in experiment [5], in experiment [6] and in experiment [20] was above 100 µM throughout. The TGI in experiment [7], in experiment [8], in [9], in [10], in experiment [12] and in experiment [13] was above 100 µM each time. The TGI in [14], in experiment [15], in experiment [16], in experiment [17], in experiment [18] and in experiment [19] was above 100 µM throughout.
For the molecule `COc1cc(C2c3cc4c(cc3OC(NCCc3ccccc3)C2C)OCO4)cc(OC)c1OC` (configuration not stated), the TGI in [1] was above 100 µM; in experiment [2] it was above 85.5 µM; in experiment [3], above 20.9 µM; in experiment [4], 35.3 µM; in experiment [5], above 65.3 µM; in [6], 4.82 µM. For the same molecule, the TGI in [7] was 0.605 µM; in experiment [8], 11.1 µM; in experiment [9], above 22.3 µM; in [10], 1.23 µM; in experiment [11] it was above 39.3 µM; in [12], above 51.8 µM. Moreover, the TGI in experiment [13] was 14.7 µM; in [14], 17.6 µM; in [15], 7.43 µM; in experiment [16] it was 22.8 µM; in experiment [17], above 100 µM; in experiment [18] it was 1.98 µM. The molecule further displayed a TGI in [19] above 94 µM.
`CCOC(=O)c1sc2c(c1O)c(=O)n(-c1ccccc1)c(=S)n2-c1ccccc1`: the TGI in experiment [1], in [2], in experiment [3], in experiment [4], in experiment [5] and in experiment [6] was above 100 µM each time. Moreover, the TGI in experiment [20], in experiment [7], in experiment [8], in experiment [11], in experiment [12] and in experiment [13] was above 100 µM throughout. Besides, the TGI in experiment [14], in experiment [15], in [16], in experiment [17] and in experiment [18] was above 100 µM each time.
As to `CSc1nn(C)cc2nc(C)nc1-2`, the TGI in experiment [1], in experiment [2], in [3], in [4], in experiment [5] and in experiment [6] was above 100 µM each time. Moreover, the TGI in [20], in experiment [7], in experiment [8], in [9], in [10] and in [11] was above 100 µM in each case. The TGI in experiment [12], in experiment [13], in experiment [15], in [16], in experiment [17] and in experiment [18] was above 100 µM throughout. The molecule also had a TGI in experiment [19] above 100 µM.
